Key:
Type in all cases: cell-based
[1] = system: basal glucose transport in A549 cells; test: standard glucose uptake assay in A549 lung cancer cells; details: Homo sapiens, DMSO treated cells as negative control
Protocol: (§1) Compounds EKB-1, EKB-2, EKB-3, EKB-4, JDB-1, and JDB-2 were assayed for their ability to inhibit glucose uptake and cell growth in A549 lung cancer cell lines. A standard glucose uptake assay may be used to evaluate glucose uptake inhibition, and an MTT cell proliferation assay may be used to evaluate cancer cell growth inhibition. […] DMSO treated cells served as the negative control. […] Again, DMSO treated cells served as the negative control.

A549 cells = test: MTT cell proliferation assay in A549 lung cancer cells; details: Homo sapiens, DMSO treated cells as negative control, read-out: Cell Growth Inhibition in A549 Cells (at 30 μM)
Protocol: as §1

[2] = system: basal glucose transport in H1299 cells; test: standard glucose uptake assay in H1299 lung cancer cells; details: Homo sapiens, NCI-H1299, DMSO treated cells as negative control
Protocol: (§2) Compounds EKB-3 and EKB-4 were assayed for their ability to inhibit glucose uptake and cell growth in H1299 lung cancer cell lines. A standard glucose uptake assay may be used to evaluate glucose uptake inhibition, and an MTT cell proliferation assay may be used to evaluate cancer cell growth inhibition. […] DMSO treated cells served as the negative control. […] Again, DMSO treated cells served as the negative control. The glucose uptake inhibition and cell growth inhibition of comparative compound WZB-134 in H1299 cells is also provided in Table 2.

H1299 cells = test: MTT cell proliferation assay in H1299 lung cancer cells; details: Homo sapiens, NCI-H1299, DMSO treated cells as negative control, read-out: Cell Growth Inhibition in H1299 Cells (at 30 μM)
Protocol: as §2

Row | Structure (SMILES) | inhibition at 30 µM [1] [%] | inhibition at 30 µM (A549 cells) [%] | inhibition at 30 µM [2] [%] | inhibition at 30 µM (H1299 cells) [%]
1 | COC(=O)C(Oc1ccc(Cl)cc1OCc1cccc(O)c1)c1cccc(O)c1 (stereo not shown) [EKB-2] | 56.1 | 51.5 | – | –
2 | COc1cccc(C(CO)Oc2cc(Cl)ccc2OCc2cccc(O)c2)c1 (stereo not shown) [JDB-2] | 34.8 | 39.7 | – | –
3 | Oc1cccc(COc2cccc(F)c2OCc2cccc(O)c2)c1 [WZB-134, reference compound] | 96 | 10 | 92.5 | 10.6
4 | OCC(Oc1ccc(Cl)cc1OCc1cccc(O)c1)c1cccc(O)c1 (stereo not shown) [EKB-3] | 62.8 | 55.5 | 90.5 | 54
5 | COC(=O)C(Oc1cc(Cl)ccc1OCc1cccc(O)c1)c1cccc(OC)c1 (stereo not shown) [JDB-1] | 19.7 | 24.6 | – | –
6 | COC(=O)C(Oc1cc(Cl)ccc1OCc1cccc(O)c1)c1cccc(O)c1 (stereo not shown) [EKB-1] | 54.3 | 62.2 | – | –
